Counter-ions that a name gives are not always drawn.
These compounds were tested against MetAP-2 (Homo sapiens, UniProt P50579) (assay: MetAP-2 activity measurement (coupled enzymatic reactions, substrate Met-Arg-Ser, photometric at 450 nm)). Details: read-out: IC50 enzyme (Inhibition of MetAP-2).
Type: biochemical
Description: MetAP-2 Activity Measurement
The MetAP-2 activity is determined by coupling enzymatic reactions. The tripeptide Met-Arg-Ser (MAS) is employed as substrate. The methionine liberated is firstly converted into Metox and H2O2 by L-aminooxidase (AAO). In the second step, the peroxidase (POD) with the aid of the H2O2 catalyses the oxidation of the leukodye dianisidine to dianisidineox, the increase of which is detected photometrically at 450 nm.
MetAP-2 activity can be recorded continuously as kinetics. The reaction scheme illustrates that one mol of dianisidineox is formed per mol of methionene. The MetAP-2 enzyme activity can therefore be calculated directly as Δ absorption per time unit. […] of the MetAP-2 activity (mol of Met/time unit) is possible with the aid of the dianisidineox extinction coefficient.
The change in extinction per time unit is depicted graphically and a slope calculation is carried out in the visually linear region of the reaction.

Chain of MetAP-2 (P50579 whole entry, species assumed): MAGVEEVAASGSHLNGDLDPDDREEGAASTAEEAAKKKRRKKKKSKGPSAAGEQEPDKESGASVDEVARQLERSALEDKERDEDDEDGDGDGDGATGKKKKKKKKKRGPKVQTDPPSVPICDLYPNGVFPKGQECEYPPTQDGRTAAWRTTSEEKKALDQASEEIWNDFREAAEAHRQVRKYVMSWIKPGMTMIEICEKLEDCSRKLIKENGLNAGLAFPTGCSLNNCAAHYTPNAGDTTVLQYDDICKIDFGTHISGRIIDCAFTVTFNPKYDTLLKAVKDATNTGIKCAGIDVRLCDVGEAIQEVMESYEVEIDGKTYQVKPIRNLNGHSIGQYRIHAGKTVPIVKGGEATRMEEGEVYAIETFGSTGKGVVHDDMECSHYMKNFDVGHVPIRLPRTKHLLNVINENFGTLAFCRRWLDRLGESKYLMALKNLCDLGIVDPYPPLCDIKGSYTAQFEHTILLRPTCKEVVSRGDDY

| IC50 [µM] | Compound |
| --- | --- |
| 1 to 10 | FC1(F)C[C@H](COc2cccc3ccccc23)N(c2ncnc3[nH]cnc23)C1 [A8, 6-[(R)-4,4-difluoro-2-(naphthalen-1-yloxymethyl)pyrrolidin-1-yl]-9H-purine] |
| 1 to 10 | C(=C\[C@H]1CCCN1c1ncnc2[nH]cnc12)/c1cccc2ccccc12 [A12, 6-[(R)-2((E)-2-naphthalen-1-ylvinyl)pyrrolidin-1-yl]-9H-purine] |
| 1 to 10 | O=C(NC1CC1)c1cc(OC[C@H]2CCCN2c2ncnc3[nH]cnc23)c2ccccc2n1 [A14, N-cyclopropyl-4-[(R)-1-(9H-purin-6-yl)pyrrolidin-2-ylmethoxy]quinoline-2-carboxamide hydrochloride] |
| > 10 | Cc1nc2c(N3CCC[C@@H]3COc3ccccc3Cl)ncnc2[nH]1 [A16, 6-[(R)-2-(2-Chlorophenoxymethyl)pyrrolidin-1-yl]-8-methyl-9H-purine] |
| > 10 | CCc1nc2c(N3CCC[C@@H]3COc3ccccc3Cl)ncnc2[nH]1 [A17, 6-[(R)-2-(2-Chlorophenoxymethyl)pyrrolidin-1-yl]-8-ethyl-9H-purine HCl] |
| > 10 | F[C@@H]1C[C@H](COc2cccc3ccccc23)N(c2ncnc3[nH]cnc23)C1 [A26, 6-[(2R,4R)-4-Fluoro-2-(naphthalen-1-yl-oxymethyl)pyrrolidin-1-yl]-9H-purine] |
| 1 to 10 | F[C@H]1C[C@H](COc2cccc3ccccc23)N(c2ncnc3[nH]cnc23)C1 [A28, 6-[(2R,4S)-4-Fluoro-2-(naphthalen-1-yl-oxymethyl)pyrrolidin-1-yl]-9H-purine] |
| > 10 | O[C@@H]1C[C@H](COc2cccc3ccccc23)N(c2ncnc3[nH]cnc23)C1 [A30, (3R,5R)-5-(Naphthalen-1-yloxymethyl)-1-(9H-purin-6-yl)pyrrolidin-3-ol] |
| > 10 | CC(=O)Nc1nc2ccc(CNC(=O)Nc3cc(C(F)(F)F)ccc3OCC3CCCN3c3ncnc4[nH]cnc34)cc2[nH]1 (stereo not drawn) [A33, N-[6-(3-{2-[1-(9H-Purin-6-yl)pyrrolidin-2-yl-methoxy]-5-trifluoromethylphenyl}ureido-methyl)-1H-benzimidazol-2-yl]acetamide] |
| > 10 | CNC(=O)c1cc(Oc2ccc(CNC(=O)Nc3cc(C(F)(F)F)ccc3OCC3CCCN3c3ncnc4[nH]cnc34)cc2)ccn1 (stereo not drawn) [A34, N-Methyl-4-[4-(3-{2-[1-(9H-purin-6-yl)pyrrolidin-2-ylmethoxy]-5-trifluoromethyl-phenyl}ureidomethyl)phenoxy]pyridine-2-carboxamide] |
| 0.01 to 1 | c1ccc2c(c1)[nH]c1cccc(OC[C@H]3CCCN3c3ncnc4[nH]cnc34)c12 [A38, 4-[(R)-1-(9H-Purin-6-yl)pyrrolidin-2-ylmethoxy]-9H-carbazole] |
| 1 to 10 | c1cnc2c(OC[C@H]3CCCN3c3ncnc4[nH]cnc34)ccc(CN3CCCCC3)c2c1 [A42, 5-Piperidin-1-ylmethyl-8-[(R)-1-(9H-purin-6-yl)-pyrrolidin-2-ylmethoxy]quinoline formate] |
| 1 to 10 | c1cnc2c(OC[C@H]3CCCN3c3ncnc4[nH]cnc34)cccc2c1 [A43, 8-[(R)-1-(9H-Purin-6-yl)pyrrolidin-2-yl-methoxy]quinoline] |
| 0.01 to 1 | CNC(=O)c1cc(OC[C@H]2CCCN2c2ncnc3[nH]cnc23)c2ccccc2n1 [A48, N-Methyl-4-[(R)-1-(9H-purin-6-yl)pyrrolidin-2-yl-methoxy]quinoline-2-carboxamide formate] |
| 1 to 10 | Cc1ccc2cccc(OC[C@H]3CCCN3c3ncnc4[nH]cnc34)c2n1 [A49, 2-Methyl-8-[(R)-1-(9H-purin-6-yl)pyrrolidin-2-yl-methoxy]quinoline] |

Second part, the compound before the results:

| Compound | IC50 [µM] |
| --- | --- |
| 2-[1-(1H-imidazol-4-yl)meth-(Z)-ylidene]-5-[(R)-1-(9H-purin-6-yl)pyrrolidin-2-ylmethoxy]-3,4-dihydro-2H-naphthalen-1-one [A15] | 0.01 to 1 |
| Clc1ccccc1CCC1CCCN1c1ncnc2[nH]cnc12 (racemic) [A5, 6-{2-[2-(2-chlorophenyl)ethyl]pyrrolidin-1-yl}-9H-purine] | 1 to 10 |
| c1ccc2c(OC[C@H]3CCCN3c3ncnc4[nH]cnc34)ccc(CN3CCOCC3)c2c1 [A3, 6-[(R)-2-(4-morpholin-4-ylmethylnaphthalen-1-yloxymethyl)pyrrolidin-1-yl]-9H-purine] | 0.01 to 1 |
| Clc1cccc(/C=C/[C@H]2CCCN2c2ncnc3[nH]cnc23)c1 [A11, 6-{(R)-2-[(E)-2-(3-chlorophenyl)vinyl]pyrrolidin-1-yl}-9H-purine] | 1 to 10 |
| Brc1nc2c(N3CCC[C@@H]3COc3cccc4ccccc34)ncnc2[nH]1 [A18, 8-Bromo-6-[(R)-2-(naphthalen-1-yloxymethyl)-pyrrolidin-1-yl]-9H-purine] | > 10 |
| CN(C[C@H]1CCCN1c1ncnc2[nH]cnc12)c1cccc(F)c1 [A21] | > 10 |
| Clc1ccccc1OC[C@H]1CCCN1c1ncnc2ncccc12 [A22] | > 10 |
| c1ccc2c(OC[C@H]3CCCN3c3ncnc4ncccc34)cccc2c1 [A23, 4-[(R)-2-(Naphthalen-1-yloxymethyl)pyrrolidin-1-yl]pyrido[2,3-d]pyrimidine] | > 10 |
| Nn1ccc2c(N3CCC[C@@H]3COc3ccccc3F)ncnc21 [A24, 4-[(R)-2-(2-Fluorophenoxymethyl)pyrrolidin-1-yl]pyrrolo[2,3-d]pyrimidin-7-ylamine] | > 10 |
| Nn1cnc2c(N3CCC[C@@H]3COc3cccc4ccccc34)ncnc21 [A25, 6-[(R)-2-(Naphthalen-1-yloxymethyl)pyrrolidin-1-yl]purin-9-ylamine] | 1 to 10 |
| F[C@@H]1C[C@H](COc2ccccc2Cl)N(c2ncnc3[nH]cnc23)C1 [A27, 6-[(2R,4R)-2-(2-Chlorophenoxymethyl)-4-fluoro-pyrrolidin-1-yl]-9H-purine] | > 10 |
| O=c1ccc(-c2cc(F)cc(F)c2)nn1CC1CCCN1c1ncnc2[nH]cnc12 (stereo not drawn) [A32, 6-(3,5-Difluorophenyl)-2-[1-(9H-purin-6-yl)-pyrrolidin-2-ylmethyl]-2H-pyridazin-3-one] | > 10 |
| c1ccc2c(c1)oc1cc(OC[C@H]3CCCN3c3ncnc4[nH]cnc34)ccc12 [A37] | 1 to 10 |
| CCCCn1c(C)c(C(=O)OCC)c2cc(OC[C@H]3CCCN3c3ncnc4[nH]cnc34)ccc21 [A39, Ethyl 1-butyl-2-methyl-5-[(R)-1-(9H-purin-6-yl)-pyrrolidin-2-ylmethoxy]-1H-indole-3-carboxylate] | 1 to 10 |
| c1cc(OC[C@H]2CCCN2c2ncnc3[nH]cnc23)c2cc[nH]c2c1 [A40, 6-[(R)-2-(1H-lndol-4-yloxymethyl)pyrrolidin-1-yl]-9H-purine] | 1 to 10 |
| CC(=O)c1cc2cccc(OC[C@H]3CCCN3c3ncnc4[nH]cnc34)c2o1 [A41, 1-{7-[(R)-1-(9H-Purin-6-yl)pyrrolidin-2-yl-methoxy]benzofuran-2-yl}ethanone] | 0.01 to 1 |
| COc1cc2c(OC[C@H]3CCCN3c3ncnc4[nH]cnc34)ncnc2cc1OCc1ccccc1 [A45, 7-Benzyloxy-6-methoxy-4-[(R)-1-(9H-purin-6-yl)-pyrrolidin-2-ylmethoxy]quinazoline] | > 10 |
| NCCOCCOCCNCc1ccc(OC[C@H]2CCCN2c2ncnc3[nH]cnc23)c2ccccc12 [A47, 2-{2-[2-({4-[(R)-1-(9H-Purin-6-yl)pyrrolidin-2-yl-methoxy]naphthalen-1-ylmethyl}-amino)ethoxy]ethoxy}ethylamine] | 1 to 10 |

From patent publication US8846694B2, “Pyrrolidone derivatives for use as MetAP-2 inhibitors” (Merck Patent GmbH, priority 2008, dated 2014)
